# Test results: ChEMBL document CHEMBL2157963, “Synthesis and in vitro antitumour screening of 2-(β-D-xylofuranosyl)thiazole-4-carboxamide and two novel tiazofurin analogues with substituted tetrahydrofurodioxol moiety as a sugar mimic” (Bioorg Med Chem Lett, 2012)
# pIC50: −log10 of the molar value. Active and inactive are the calls of the source. No cut-off for these calls is given here.
# Legend:
# K562 [1] = assay: Cytotoxicity against human K562 cells after 72 hrs by MTT assay; assay type: functional, cell-based; conditions: K562, 72 h
# MRC5 = assay: Cytotoxicity against human MRC5 cells after 72 hrs by MTT assay; assay type: cell-based; conditions: MRC5, 72 h
# HL-60 [2] = assay: Ratio of tiazofurin IC50 to compound IC50 for human HL60 cells; assay type: functional
# HL-60 [3] = assay: Cytotoxicity against human HL60 cells after 72 hrs by MTT assay; assay type: functional, cell-based; conditions: HL-60, 72 h
# Jurkat = assay: Cytotoxicity against human Jurkat cells after 72 hrs by MTT assay; assay type: functional, cell-based
# Raji = assay: Cytotoxicity against human Raji cells after 72 hrs by MTT assay; assay type: functional, cell-based
# HeLa [4] = assay: Ratio of tiazofurin IC50 to compound IC50 for human HeLa cells; assay type: functional
# HeLa [5] = assay: Cytotoxicity against human HeLa cells after 72 hrs by MTT assay; assay type: functional, cell-based
# MDA-MB-231 = assay: Cytotoxicity against human MDA-MB-231 cells; assay type: functional, cell-based
# MCF7 = assay: Cytotoxicity against human MCF7 cells; assay type: functional, cell-based
# HT-29 = assay: Cytotoxicity against human HT-29 cells; assay type: functional, cell-based
# K562 [6] = assay: Cytotoxicity against human K562 cells after 72 hrs by DET assay; assay type: functional, cell-based; conditions: K562, 72 h
# K562 [7] = assay: Induction of apoptosis in human K562 cells at IC50 concentration after 24 hrs by AnnexinV staining-based flow cytometric analysis; assay type: functional, cell-based
# K562 [8] = assay: Cytotoxicity against human K562 cells after 72 hrs by SRB assay; assay type: functional, cell-based; conditions: K562, 72 h
# K562 [9] = assay: Induction of apoptosis in human K562 cells assessed as apoptotic cells at IC50 concentration after 72 hrs by AnnexinV staining-based flow cytometric analysis relative to tiazofurin; assay type: functional
# K562 [10] = assay: Ratio of tiazofurin IC50 to compound IC50 for human K562 cells; assay type: functional
SMILES,pIC50 (K562 [1]),pIC50 (MRC5),Ratio IC50 (HL-60 [2]),pIC50 (HL-60 [3]),pIC50 (Jurkat),pIC50 (Raji),Ratio IC50 (HeLa [4]),pIC50 (HeLa [5]),pIC50 (MDA-MB-231),pIC50 (MCF7),pIC50 (HT-29),pIC50 (K562 [6]),Activity (K562 [7]),pIC50 (K562 [8]),fold change (FC) (K562 [9]),Activity (MDA-MB-231),Activity (MCF7),Activity (HT-29),Ratio IC50 (K562 [10])
C[C@@]1(c2nc(C(N)=O)cs2)O[C@H]2O[C@H](CO)[C@H](O)[C@H]2O1,7.00,< 4.00,4,7.30,6.23,5.58,64,7.22,–,–,–,–,–,–,–,–,–,–,–
NC(=O)c1csc([C@@H]2O[C@H](CO)[C@@H](O)[C@H]2O)n1 [TIAZOFURIN],5.68,6.44,–,6.72,7.40,5.28,–,5.42,6.59,6.59,6.59,–,–,–,–,–,–,–,–
NC(=O)c1csc([C@@H]2O[C@H](CO)[C@H](O)[C@H]2O)n1,6.82,< 4.00,–,6.89,6.28,5.51,48,7.10,–,–,–,7.00,Active,6.38,7,inactive,inactive,inactive,–
C[C@]1(c2nc(C(N)=O)cs2)O[C@H]2O[C@H](CO)[C@H](O)[C@H]2O1,7.70,< 4.00,–,6.47,6.19,5.25,–,6.19,–,–,–,–,–,–,–,–,–,–,100
